{
  "source": "patent US20120213697A1",
  "about": "“VERSATILE NANOPARTICULATE BIOMATERIAL FOR CONTROLLED DELIVERY AND/OR CONTAINMENT OF THERAPEUTIC AND DIAGNOSTIC MATERIAL” (Albert Einstein College of Medicine of Yeshiva University, priority 2009, published 2012)",
  "experiment": "MRI of mice after tail vein injection, maximum pixel intensity of the kidney",
  "format": "in vivo, mouse",
  "description": "FIG. 2A-2B. MRI of a mouse injected with Magnevist® (gadopentetate dimeglumine) (A) and a mouse injected with nanoparticles loaded with gadopentetate dimeglumine (B). The left images are pre-injection, center images are 4 hours post injection, and right images are 24 hours post injection. […] A study was conducted to address the efficacy with which CA-loaded particles can provide MRI images. MRI images of mice were acquired pre-injection. Subsequently mice were injected (via the tail vein) with one of the following: i) a suspension of empty nanoparticles; ii) a suspension of nanoparticles loaded with Magnevist® (gadopentetate dimeglumine, a commercial Gd based MRI contrast reagent); and iii) Magnevist® solution. Mice were then imaged immediately after injection of each of these materials and again at 2 hours, 4 hours and 24 hours post injection. Maximum pixel intensity of the kidney was measured (relative to the background) at each time point using ImageJ software.",
  "data": [
    {"smiles": "CNC[C@H](O)[C@@H](O)[C@H](O)[C@H](O)CO.CNC[C@H](O)[C@@H](O)[C@H](O)[C@H](O)CO.O=C([O-])CN(CCN(CC(=O)[O-])CC(=O)O)CCN(CC(=O)[O-])CC(=O)O.[Gd+3]", "note": "[Magnevist®, gadopentetate dimeglumine]", "values": [
      {"measurement": "increase of maximum pixel intensity of the kidney", "setting": "4 hours post-injection, tail vein, one mouse each", "value": 32, "unit": "%"},
      {"measurement": "signal intensity throughout the GI tract", "setting": "24 hour time point", "value": "not observed"},
      {"measurement": "MRI contrast (FIG. 2)", "setting": "24 hours post-injection", "value": "returned to pre-injection levels"},
      {"measurement": "change of maximum pixel intensity of the kidney", "setting": "24 hours post-injection, additional increase over 4 hours", "value": "returned to pre-injection levels"}
    ]}
  ]
}
